Results reported in patent publication US20260317356A1, “SMALL MOLECULE MODULATORS OF OGG1” (AZKARRA THERAPEUTICS, INC., priority 2023, published 2026).

These compounds were tested against hOGG1 (Homo sapiens, UniProt O15527) (assay: Surface Plasma Resonance with hOGG1 to measure compound affinity (OGG1 SPR Kd)). Conditions: Biacore T-200, immobilized his-tagged OGG1; pH 7.4; 2% DMSO; single-cycle kinetics.
Format: binding
Design: Protein His-hOGG1 (12-323) was prepared
Method: Surface Plasma Resonance with hOGG1 to Measure Compound Affinity (OGG1 SPR Kd); All the SPR studies were performed on a Biacore T-200 instrument (Cytiva life sciences) using series S NTA sensor chip (cat #BR-1005-32, Cytiva life sciences). Recombinant his-tagged OGG1 (mol. wt. 36003; ChemPartner, Shanghai, China) was immobilized on NTA sensor chip via Ni^2+/NTA chelation using NTA reagent kit (Cytiva life sciences; cat #289950) as per manufacturer's recommended protocol. The running buffer during immobilization contained HEPES (20 mM, pH 7.4), 150 mM NaCl, 0.5 mM TCEP (tris(2-carboxyethyl)phosphine), and 0.005% Tween-20. NTA sensor chip (experimental cell) was first conditioned by injecting regeneration solution (350 mM EDTA, flow rate 30 μL/min, 2 injections 60 each). Additional wash with 50 mM NaOH was used whenever the chip was regenerated (flow rate 30 μL/min, 1 injection of 60 s). The sensor chip was then activated with 0.5 mM NiCl2 (flow rate 10 μL/min, 2 injection of 60 s, leading to a baseline increase of ~40 RU), and the excess Ni^2+ was removed using immobilization buffer containing 3 mM EDTA (flow rate 10 μL/min, 1 injection of 60 s). Finally, OGG1 (diluted to 6.2 μg/mL in running buffer) was injected on the activated sensor chip at a flow rate of 10 μL/min until immobilization level reached ~6000 RU. Any loosely bound protein was removed by passing the immobilization buffer overnight at 20 μL/min. At this point, the drift in baseline was ~0.01 RU/s and the final immobilization level was ~2500 RU. Reference cell was left untreated. SPR binding experiments were performed using binding buffer (20 mM HEPES (pH 7.4), 150 mM NaCl, 0.5 mM TCEP, 0.005% Tween-20, and 2% DMSO) at a flow rate of 30 μL/min. Single-cycle kinetics approach was used for binding analysis which consisted of sequential injections of increasing concentrations of test compound (a 3-fold serial dilution with 5 concentrations; highest 750 or 1500 nM; with final DMSO concentration at 2%) over the immobilized protein without regeneration step between each sample injection. Each injection was 45 seconds long (contact time), followed by a final dissociation of 600 sec. The Biacore T-200 Evaluation software 3.1 (GE Healthcare) was used to determine kinetic parameters from SPR data. All the reported sensograms were reference subtracted and corrected for refractive index contributions from solvent using 8-point solvent correction (1.4 to 2.8% DMSO in binding buffer). Data were fit to both steady state and 1:1 kinetic model to obtain Kon, Koff and binding affinity (Kd).

Chain of hOGG1 (O15527 12-323): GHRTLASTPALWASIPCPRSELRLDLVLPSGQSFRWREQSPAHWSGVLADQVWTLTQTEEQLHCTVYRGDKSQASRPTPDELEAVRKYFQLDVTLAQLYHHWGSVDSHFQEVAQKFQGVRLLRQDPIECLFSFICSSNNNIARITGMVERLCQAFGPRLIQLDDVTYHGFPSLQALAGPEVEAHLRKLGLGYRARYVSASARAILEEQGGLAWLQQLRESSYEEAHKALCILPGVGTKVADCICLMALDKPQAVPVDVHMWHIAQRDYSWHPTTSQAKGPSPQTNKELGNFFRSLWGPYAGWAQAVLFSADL

Row | Kd | SMILES
1 | 10 to 100 nM | COc1cc(NC(=O)[C@H]2CC[C@@H](N3Cc4ccccc4NC3=O)CC2)ccc1C [Example 67, (1s,4s)-N-(3-methoxy-4-methylphenyl)-4-(2-oxo-1,2-dihydroquinazolin-3(4H)-yl)cyclohexanecarboxamide]
2 | 100 to 1000 nM | COc1cc(NC(=O)[C@H]2CC[C@@H](N3Cc4c(C)cc(N5CC6(COC6)C5)cc4NC3=O)CC2)ccc1C [Example 30, (1s,4s)-N-(3-Methoxy-4-methylphenyl)-4-(5-methyl-2-oxo-7-(2-oxa-6-azaspiro[3.3]heptan-6-yl)-1,2-dihydroquinazolin-3(4H)-yl)cyclohexanecarboxamide]
3 | 10 to 100 nM | COc1cc(NC(=O)[C@H]2CC[C@@H](N3Cc4c(C)ccc(N5CC6(COC6)C5)c4NC3=O)CC2)ccc1C [Example 35, (1s,4s)-N-(3-Methoxy-4-methylphenyl)-4-(5-methyl-2-oxo-8-(2-oxa-6-azaspiro[3.3]heptan-6-yl)-1,2-dihydroquinazolin-3(4H)-yl)cyclohexanecarboxamide]
4 | 10 to 100 nM | COc1cc(NC(=O)[C@H]2CC[C@@H](N3Cc4c(C)ccc(C#N)c4C3=O)CC2)ccc1C [Example 143, (1s,4s)-4-(7-Cyano-4-methyl-1-oxoisoindolin-2-yl)-N-(3-methoxy-4-methylphenyl)cyclohexanecarboxamide]
5 | 10 to 100 nM | COc1cc(NC(=O)[C@H]2CC[C@@H](N3Cc4c(C)cc(N(C)C)cc4C3=O)CC2)ccc1C [Example 135, (1s,4s)-4-(6-(Dimethylamino)-4-methyl-1-oxoisoindolin-2-yl)-N-(3-methoxy-4-methylphenyl)cyclohexane-1-carboxamide]
6 | 10 to 100 nM | COc1ccc(NC(=O)[C@H]2CC[C@@H](N3Cc4c(C)ccc(OC)c4NC3=O)CC2)cc1C#N [Example 2, (1s,4s)-N-(3-Cyano-4-methoxyphenyl)-4-(8-methoxy-5-methyl-2-oxo-1,2-dihydroquinazolin-3(4H)-yl)cyclohexanecarboxamide]
7 | ≤ 10 nM | COc1cc(NC(=O)[C@H]2CC[C@@H](N3Cc4c(C)cnc(CNC(C)=O)c4NC3=O)CC2)ccc1C [Example 19, (1s,4s)-4-(8-(Acetamidomethyl)-5-methyl-2-oxo-1,2-dihydropyrido[3,4-d]pyrimidin-3(4H)-yl)-N-(3-methoxy-4-methylphenyl)cyclohexanecarboxamide]
8 | 10 to 100 nM | COc1cc(NC(=O)[C@H]2CC[C@@H](N3Cc4c(C)ccc(OC5CNC5)c4NC3=O)CC2)ccc1C [Example 45]
9 | ≤ 10 nM | COc1ccc(NC(=O)[C@H]2CC[C@@H](N3Cc4c(C)ccnc4NC3=O)CC2)cc1C [Example 16, (1s,4s)-N-(4-Methoxy-3-methylphenyl)-4-(5-methyl-2-oxo-1,2-dihydropyrido[2,3-d]pyrimidin-3(4H)-yl)cyclohexanecarboxamide]
10 | 10 to 100 nM | COc1ccc(NC(=O)[C@H]2CC[C@@H](N3Cc4c(C)cc(NCCN(C)C)cc4C3=O)CC2)cc1Cl [Example 260, (1s,4s)-N-(3-Chloro-4-methoxyphenyl)-4-(6-(2-(dimethylamino)ethylamino)-4-methyl-1-oxoisoindolin-2-yl)cyclohexanecarboxamide]
11 | 10 to 100 nM | COc1ccc(NC(=O)[C@]2(C)CC[C@H](N3Cc4c(C)cccc4NC3=O)CC2)cc1Cl (single isomer, unassigned) [Example 103, (1s,4s)-N-(3-chloro-4-methoxyphenyl)-1-methyl-4-(5-methyl-2-oxo-1,2-dihydroquinazolin-3(4H)-yl)cyclohexanecarboxamide]
12 | 10 to 100 nM | COc1ccc(NC(=O)[C@H]2CC[C@@H](N3Cc4c(C)cc(NCCN(C)C)cc4NC3=O)CC2)cc1C#N [Example 99, (1s,4s)-N-(3-cyano-4-methoxyphenyl)-4-(7-(2-(dimethylamino)ethylamino)-5-methyl-2-oxo-1,2-dihydroquinazolin-3(4H)-yl)cyclohexanecarboxamide]
13 | 10 to 100 nM | COc1cc(NC(=O)[C@]2(C)CC[C@H](N3Cc4c(C)ccc(OC)c4NC3=O)CC2)ccc1C [Example 13, (1s,4s)-N-(3-Methoxy-4-methylphenyl)-4-(8-methoxy-5-methyl-2-oxo-1,2-dihydroquinazolin-3(4H)-yl)-1-methylcyclohexanecarboxamide]
14 | 10 to 100 nM | COc1cc(NC(=O)[C@H]2CC[C@@H](N3Cc4c(C)ccc(OC)c4NC3=O)CC2)ccc1C [Example 47, (1s,4s)-N-(3-Methoxy-4-methylphenyl)-4-(8-methoxy-5-methyl-2-oxo-1,2-dihydroquinazolin-3(4H)-yl)cyclohexanecarboxamide]
15 | 10 to 100 nM | COc1cc(NC(=O)[C@H]2CC[C@@H](N3Cc4c(C)ccnc4NC3=O)CC2)ccc1C [Example 41, (1s,4s)-N-(3-Methoxy-4-methylphenyl)-4-(5-methyl-2-oxo-1,2-dihydropyrido[2,3-d]pyrimidin-3(4H)-yl)cyclohexanecarboxamide]
16 | 10 to 100 nM | COc1ccc(NC(=O)[C@H]2CC[C@@H](N3Cc4c(C)cccc4C3=O)CC2)cc1C#N [Example 239, (1s,4s)-N-(3-Cyano-4-methoxyphenyl)-4-(4-methyl-1-oxoisoindolin-2-yl)cyclohexanecarboxamide]
17 | 10 to 100 nM | COc1ccc(NC(=O)[C@H]2CC[C@@H](N3Cc4c(C)ccc(OC)c4NC3=O)CC2)cc1C [Example 4, (1s,4s)-N-(3-Methyl-4-methoxyphenyl)-4-(8-methoxy-5-methyl-2-oxo-1,2-dihydroquinazolin-3(4H)-yl)cyclohexanecarboxamide]
18 | ≤ 10 nM | COc1ccc(NC(=O)[C@]2(C)CC[C@H](N3Cc4c(C)ccc(OC)c4NC3=O)CC2)cc1C (single isomer, unassigned) [Example 11, (1s,4s)-N-(3-methyl-4-methoxyphenyl)-4-(8-methoxy-5-methyl-2-oxo-1,2-dihydroquinazolin-3(4H)-yl)-1-methylcyclohexanecarboxamide]
19 | ≤ 10 nM | COc1ccc(NC(=O)[C@]2(C)CC[C@H](N3Cc4c(C)ccc(OC)c4NC3=O)CC2)cc1C#N (single isomer, unassigned) [Example 9, (1s,4s)-N-(3-cyano-4-methoxyphenyl)-4-(8-methoxy-5-methyl-2-oxo-1,2-dihydroquinazolin-3(4H)-yl)-1-methylcyclohexanecarboxamide]
20 | 10 to 100 nM | COc1cc(NC(=O)[C@H]2CC[C@@H](N3Cc4c(C)cc(-c5nnco5)cc4NC3=O)CC2)ccc1C [Example 92, (1s,4s)-N-(3-methoxy-4-methylphenyl)-4-(5-methyl-7-(1,3,4-oxadiazol-2-yl)-2-oxo-1,2-dihydroquinazolin-3(4H)-yl)cyclohexanecarboxamide]
21 | 10 to 100 nM | CNCCNc1cc(C)c2c(c1)C(=O)N([C@H]1CC[C@@H](C(=O)Nc3ccc(C)c(OC)c3)CC1)C2 [Example 193, (1s,4s)-N-(3-methoxy-4-methylphenyl)-4-(4-methyl-6-(2-(methylamino)ethylamino)-1-oxoisoindolin-2-yl)cyclohexanecarboxamide]
22 | 10 to 100 nM | COc1ccc(NC(=O)[C@H]2CC[C@@H](N3Cc4c(C)cc(NCCN(C)C)cc4C3=O)CC2)cc1C#N [Example 259, (1s,4s)-N-(3-Cyano-4-methoxyphenyl)-4-(6-(2-(dimethylamino)ethylamino)-4-methyl-1-oxoisoindolin-2-yl)cyclohexanecarboxamide]
23 | 10 to 100 nM | COc1cc(NC(=O)[C@H]2CC[C@@H](N3Cc4c(C)ccc(OCC5CNC5)c4NC3=O)CC2)ccc1C [Example 44, (1s,4s)-4-(8-(Azetidin-3-ylmethoxy)-5-methyl-2-oxo-1,2-dihydroquinazolin-3(4H)-yl)-N-(3-methoxy-4-methylphenyl)cyclohexanecarboxamide]
24 | 10 to 100 nM | COc1cc(NC(=O)[C@H]2CC[C@@H](N3Cc4c(C)ccc(C#N)c4NC3=O)CC2)ccc1C [Example 59, (1s,4s)-4-(8-cyano-5-methyl-2-oxo-1,2-dihydroquinazolin-3(4H)-yl)-N-(3-methoxy-4-methylphenyl)cyclohexanecarboxamide]
25 | 10 to 100 nM | COc1cc(NC(=O)[C@H]2CC[C@@H](N3Cc4c(C)ccc(CN)c4NC3=O)CC2)ccc1C [Example 58, (1s,4s)-4-(8-(aminomethyl)-5-methyl-2-oxo-1,2-dihydroquinazolin-3(4H)-yl)-N-(3-methoxy-4-methylphenyl)cyclohexanecarboxamide]
